In ChEMBL document CHEMBL3507680, “University of Dundee, Gates Library screen for HepG2 cell viability”:

experiment: Human HepG2 cell viability assay in 384 well format; assay type: toxicity, cell-based; parameters: dose 125 nL, time 70.5 hour; concentration not given beside the values; settings: HepG2 cells, read-out: Inhibition

| Compound | cytotoxicity at 70.5 h [%] |
| --- | --- |
| c1ccc2oc(CN3CCOC(Cn4cccn4)C3)nc2c1 (stereo not drawn) | -0.847 |
| Cc1cccc(N(CC(=O)N2CCCCC2)Cc2ccno2)c1 | -5.71 |
| CN1CCN(Cc2cnn(-c3ccccc3Cl)c2)[C@H]2CS(=O)(=O)C[C@H]21 | -5.22 |
| CCN(CC)C(=O)c1ccc(Cl)c(NC(=O)c2cc[nH]n2)c1 | 13.3 |
| CN(CC1CC1)C(=O)CN1CCCC1c1cnn(C)c1 (stereo not drawn) | 1.65 |
| CC(C)(C)c1nc(CN2CCCC2c2nnc3ccccn23)no1 (stereo not drawn) | -22.6 |
| Cc1nc(-c2ccco2)ccc1C(=O)N1CCc2nnc(N)cc2C1 | -1.99 |
| Cc1nccn1-c1cc(CNC(=O)COCC2CC2)ccn1 | -6.02 |
| Cc1ccccc1CC(C)NC(=O)Nc1cnn(CC(N)=O)c1 (stereo not drawn) | -0.765 |
| CC(=O)c1ccc(Nc2nc(N)nc3c2nc(C)n3C)cc1 | 4.46 |
| COCc1ccc(CN2CCC(O)(Cn3ccc4ncccc43)CC2)o1 | -8.64 |
| CC(C)Oc1ccc(Cl)c(C(=O)N2CCN(CCO)CC2)n1 | -12.1 |
| CN(Cc1ccncc1)C(=O)NCc1cn(-c2ccccc2)nn1 | -8.45 |
| NC(=O)CN1CCCN(C(=O)Cc2ccc(F)cc2)CC1 | -13.3 |
| COc1cc(C)ccc1C(=O)N1CCC2(CCC(=O)N(C(C)C)C2)CC1 | -4.16 |
| Cc1cccc(OCCNC(=O)Cn2ccc(C)cc2=O)c1 | -8.95 |
| Cc1nn(-c2ccccc2)c(C)c1CNC1CCc2ncnn2C1 (stereo not drawn) | 1.33 |
| c1ccc2c(c1)CC(CNCc1ccncc1)(N1CCCCC1)C2 | -4.17 |
| COCCN(C)CCN1CC2(CCN(C3CCSC3)CC2)OC1=O (stereo not drawn) | -4.49 |
| CN(C)C[C@H]1CC[C@@H](Cc2ccc3c(cnn3C)c2)O1 | -11.9 |
| Cn1c(CN2CCC(O)CC2)nnc1C1CCCN(c2ccncc2)C1 (stereo not drawn) | -9.58 |
| CCc1nc(CNC(=O)Nc2ccc(C(=O)NC)cc2C)cs1 | -22.3 |
| O=C(NC1CCCC1)NC1CCc2[nH]c(=O)ccc2C1 (stereo not drawn) | -7.5 |

| Compound | cytotoxicity at 70.5 h [%] |
| --- | --- |
| CN1CCC(CNC(=O)CCSc2ccc3c(c2)OCCO3)C1 (stereo not drawn) | -2.01 |
| CCc1cnc(C)nc1NCCc1nc(N)cc(O)n1 | -3.5 |
| Cc1nn(C)c(N2CCOCC2)c1CNC(C)c1cccs1 (stereo not drawn) | -1.47 |
| CN(CC1=CCCN(Cc2cccc(C#N)c2)C1)C(=O)c1ccco1 | -12.2 |
| Cc1nc(C)n(CC2CCCN2CC(=O)NCc2ccco2)n1 (stereo not drawn) | -2.21 |
| COc1cccc2c1ccn2CC(=O)N[C@@H](CCSC)C(=O)O | -3.11 |
| Cc1ccc(OC2(C(=O)O)CCN(C/C=C/c3ccco3)CC2)cc1 | -7.6 |
| O=C(NCc1ccco1)[C@H]1C[C@@H]2CCN(c3ncccn3)C[C@H]2O1 | -5.11 |
| Cn1c(=O)n(C)c2cc(C3SCC(=O)Nc4ccsc43)ccc21 (stereo not drawn) | 38.6 |
| Cc1nn(C(C)C)c(C)c1S(=O)(=O)Nc1ccc(C(=O)O)cc1 | -1.04 |
| O=C(Nc1ccccc1OCc1ccccn1)NC1CCOCC1 | -8.37 |
| O=C1C[C@@H]2[C@H](CCN2Cc2ccccn2)N1Cc1ccncc1 | -4.28 |
| O=C(NCc1ccccn1)[C@@H]1COC[C@H]2CN(c3ncccn3)C[C@H]21 | -6.07 |
| CN1CC[C@@H]2OC[C@H](C(=O)N(C)Cc3ccccn3)C[C@@H]2C1 | 2.32 |
| CN(Cc1ccccc1CNC(=O)C1CNC(=O)N1)C1CCCCC1 (stereo not drawn) | -4.23 |
| O=C(NCC(=O)N1CCCC1Cc1cccc(F)c1)C1CCCC1 (stereo not drawn) | -1.38 |
| COc1cccc(CCC(=O)N2CCN(CC(C)(C)O)CC2)c1 | 10.1 |
| COc1cc(/C=C/c2ncc(C(=O)O)s2)cc(Cl)c1O | 7.03 |
| Cc1cnn(CC2CCCN2c2nn3cc(C)nc3s2)c1 (stereo not drawn) | -4.6 |
| CCN1Cc2ccccc2CC2(CCN(CC3CCC3)CC2)C1=O | 11.7 |
| CCn1cc(N2Cc3nc(N4CCC(C)CC4)ncc3C2=O)cn1 | -8.76 |
| COCC(=O)N1CCc2ccc(=O)n(CC3CC3)c2CC1 | -2.86 |
| CCN1CC2(CC1=O)CN(Cc1cnn(C)c1)CCN(C(=O)C(C)C)C2 (stereo not drawn) | -4.6 |

| Compound | cytotoxicity at 70.5 h [%] |
| --- | --- |
| c1cncc(C2=NOC3(CCN(Cc4c[nH]c5ccccc45)CC3)C2)c1 | 5.06 |
| O=C1CCC[C@]2(CN(S(=O)(=O)C3CCCCC3)C[C@H]2c2cccnc2)N1 | -3.41 |
| CCNC(=O)N[C@H]1C[C@@H](Cc2cc(CN3CCCCC3)on2)C1(C)C | -4.13 |
| Cc1ccc(N2CCCC(NCc3cscn3)C2)nn1 (stereo not drawn) | -11.8 |
| CCN(C(=O)c1ccc2nnc(C3CCN(S(C)(=O)=O)C3)n2c1)C(C)C (stereo not drawn) | -9.62 |
| Cc1cnc(N2C[C@@H]3[C@@H](C2)OCC(=O)N3CC2CC2)nc1 | 14.2 |
| CS(=O)(=O)NCC1CCCN(C(=O)COc2ccc(F)cc2)C1 (stereo not drawn) | -15.8 |
| O=C(c1ccc(-c2cc[nH]n2)cc1)N1CC[C@H](CO)[C@H](O)C1 | 0.543 |
| CN1CCCCC1Cc1nc(Cc2cccc(F)c2)no1 (stereo not drawn) | -7.83 |
| CC1=C(C(=O)N2CCCC(Cn3cc(CO)nn3)C2)OCCO1 (stereo not drawn) | -2.23 |
| COc1ccc(NC(=O)CCC(C)C)c(N2CCN(C(C)=O)CC2)n1 | -13.6 |
| O=C(c1cc(Br)c[nH]1)N1CCN(Cc2ccco2)CC1 | 5.49 |
| Cc1nonc1C1CCCN1C(=O)c1cc2n(n1)CCCN(C(C)C)C2 (stereo not drawn) | -6.2 |
| COc1cc2nc(NCc3scnc3C)nc(N)c2cc1OC | 8.57 |
| CC(C)c1ccc(S(=O)(=O)NC2(CC(N)=O)CCC2)cc1 | 2.8 |
| O=S(=O)(c1c(Cl)nc2sccn12)N1CCC2(CCNCC2)C1 | -6.41 |
| CC(C)(C)c1cnc(CN2CCCS(=O)(=O)CC2)o1 | -1.34 |
| Cc1cc(C)cc(OCC(=O)N2CCCC2)c1 | -21.3 |
| CC(C(N)=O)N1CCN(c2ncc(Cl)cn2)CC1 (stereo not drawn) | -5.36 |
| CC(=O)N1CCCC2(CN(Cc3ccc(F)cc3)CCO2)C1 (stereo not drawn) | 2.34 |
| Cc1cc(C)n(CC2(CNC(=O)C(c3ccccc3C)N(C)C)CC2)n1 (stereo not drawn) | -10.8 |
| CN(CCNC(=O)Nc1cnn(C)c1)Cc1ccc(F)cc1 | -20.9 |
| O=C(N1CCCC1)N1CCCC2(CCN(c3ccsc3)C2=O)C1 (stereo not drawn) | -7.85 |

| Compound | cytotoxicity at 70.5 h [%] |
| --- | --- |
| Cc1ccc(NC(=O)CN2CCOCC2)c(F)c1 | 21.2 |
| CS(=O)(=O)NC[C@]12COC[C@H]1CN(C(=O)C1CC=CC1)C2 | -3.37 |
| COc1cccc([C@@H]2CN(C3CSCCSC3)C[C@H]2C(=O)O)c1 | -1.5 |
| Cc1ccsc1[C@@H]1CCN(C(=O)CCOc2ccccc2)C[C@H]1O | -8.93 |
| CC(=O)N1CCN(Cc2c(C)sc3ccccc23)CC(O)C1 (stereo not drawn) | -3.67 |
| Cc1nc(O)c2nnn(C[C@H]3CCCN3C(=O)c3cccc(F)c3)c2n1 | -7.83 |
| Cc1cc(C(=O)Nc2n[nH]c(C3CC3)n2)c2c(C)noc2n1 | 29 |
| COc1cccc(-c2cc(CN)ccc2F)c1F | -8.44 |
| COCCNC(=O)Nc1cccc2c1CCN(S(C)(=O)=O)C2 | -0.282 |
| CN(Cc1ccc(OCC(=O)N2CCOCC2)cc1)S(C)(=O)=O | 2.5 |
| Cc1ccncc1CN1CCOCC1c1[nH]ncc1C (stereo not drawn) | -1.54 |
| NC1(c2nc(-c3ccccc3)cc(=O)[nH]2)CCCC1 | 13.8 |
| O=C(C1CCCOC1)N1CCc2ccc(F)cc21 (stereo not drawn) | 1.26 |
| O=C(C(c1ccc(F)cc1)N1CCCCC1)N1CCn2cncc2C1 (stereo not drawn) | -1.97 |
| CCc1nccc(CN2CCC(CNC(=O)c3occc3C)C2)n1 (stereo not drawn) | -5.76 |
| CCn1ccnc1CN(C)Cc1nc(Cc2ccccc2Cl)no1 | 0.631 |
| O=C(c1ccnn1COc1ccc(Cl)cc1)N1CCSCC1 | -11 |
| CC(=O)NCC(=O)N1Cc2cc(C#N)ccc2C1c1cnco1 (stereo not drawn) | 25.2 |
| CC1(C(=O)NC2CCCC2)CCCN(c2ncccn2)C1 (stereo not drawn) | 6.47 |
| COc1cccc(S(=O)(=O)N2C[C@H](OC)[C@]3(CCCO3)C2)c1 | -4.33 |
| CCc1c(C)sc2ncnc(N3CCN(C4CCOCC4)CC3)c12 | -11.1 |
| COC(=O)N1CCc2ccccc2C1C(=O)NCc1nc(C)no1 (stereo not drawn) | -7.1 |
| Oc1nc(N2CCOCC2)nc2c1CCN(Cc1cccc(F)c1)CC2 | -5.57 |

| Compound | cytotoxicity at 70.5 h [%] |
| --- | --- |
| Cc1nc2ccc(C(=O)N(CCC#N)CCC#N)cc2nc1C | 11.6 |
| CCN(C(=O)COC)C(c1ccc(Cl)cc1)c1ccccn1 (stereo not drawn) | -21.9 |
| O=C1CCC(CCC(=O)N2CCC2c2cccs2)=NN1 (stereo not drawn) | -13.3 |
| COc1cc(N2CCC3(CC2)CN(CCO)c2ccccc23)ncn1 | -0.577 |
| O=C(NCC1CC1)C1CSCN1S(=O)(=O)c1cc(F)cc(F)c1 (stereo not drawn) | -15.2 |
| CC(=O)Nc1ccc(SCCCC(=O)NCC2CCCO2)nn1 (stereo not drawn) | -11.3 |
| COc1ncnc2c1CCN(C(=O)Cc1cccc(F)c1)CC2 | -3.34 |
| COc1ccc(CNC(=O)N2CCOCC2C2CC2)c(C)c1 (stereo not drawn) | -6.07 |
| CC(C)(C)c1nccc(N2CCCCC2CCNS(C)(=O)=O)n1 (stereo not drawn) | 2.95 |
| Cc1nc(CN2C[C@@H]3CN(C(=O)c4ccncc4)C[C@@H]3C2)cs1 | -9.65 |
| Cc1cc(C)nc(CCNC(=O)C(c2ccc(F)cc2)N(C)C)n1 (stereo not drawn) | 30.5 |
| O=C(NC1CC(F)(F)C1)[C@]12COC[C@H]1CN(Cc1cccnc1)C2 | -10.6 |
| COCCN1CCc2c(cnc(-c3ccccc3)c2C(=O)O)C1 | -9.19 |
| CC(C)(C)c1n[nH]c(C2CN(C(=O)C3=COCCC3)CCO2)n1 (stereo not drawn) | -6.48 |
| CCn1ccnc1CN1CCCC(N(C)CCc2ccccc2)C1 (stereo not drawn) | -1.22 |
| CCc1nc(NS(=O)(=O)c2ccc(F)cc2C)no1 | -5.01 |
| Cc1nc(N)sc1C(=O)N1CCCC(COc2ccc(F)cc2)C1 (stereo not drawn) | -0.394 |
| Oc1cc(CNCCCN2CCCC2)nc2ccc(F)cc12 | 12.5 |
| Fc1ccc(Nc2ccc(C3CCN(Cc4ncc[nH]4)CC3)nc2)nc1 | -4.32 |
| CCc1nc(NC2CCCN(C(=O)C3CC3)C2)c2cnn(C)c2n1 (stereo not drawn) | -15.4 |
| CCOc1cc(CN(C)CCCO)ccc1OC(F)F | -6.49 |
